From US9776995B2, “Bicyclic sulfonamide compounds as sodium channel inhibitors” (AMGEN INC., priority 2013, dated 2017)

Biological target: Nav 1.7 (Homo sapiens (Human), UniProt Q15858)
Test: in-vitro Nav 1.7 PX data
Type: cell-based
Details: not given

Sequence of Nav 1.7 (Q15858 whole entry): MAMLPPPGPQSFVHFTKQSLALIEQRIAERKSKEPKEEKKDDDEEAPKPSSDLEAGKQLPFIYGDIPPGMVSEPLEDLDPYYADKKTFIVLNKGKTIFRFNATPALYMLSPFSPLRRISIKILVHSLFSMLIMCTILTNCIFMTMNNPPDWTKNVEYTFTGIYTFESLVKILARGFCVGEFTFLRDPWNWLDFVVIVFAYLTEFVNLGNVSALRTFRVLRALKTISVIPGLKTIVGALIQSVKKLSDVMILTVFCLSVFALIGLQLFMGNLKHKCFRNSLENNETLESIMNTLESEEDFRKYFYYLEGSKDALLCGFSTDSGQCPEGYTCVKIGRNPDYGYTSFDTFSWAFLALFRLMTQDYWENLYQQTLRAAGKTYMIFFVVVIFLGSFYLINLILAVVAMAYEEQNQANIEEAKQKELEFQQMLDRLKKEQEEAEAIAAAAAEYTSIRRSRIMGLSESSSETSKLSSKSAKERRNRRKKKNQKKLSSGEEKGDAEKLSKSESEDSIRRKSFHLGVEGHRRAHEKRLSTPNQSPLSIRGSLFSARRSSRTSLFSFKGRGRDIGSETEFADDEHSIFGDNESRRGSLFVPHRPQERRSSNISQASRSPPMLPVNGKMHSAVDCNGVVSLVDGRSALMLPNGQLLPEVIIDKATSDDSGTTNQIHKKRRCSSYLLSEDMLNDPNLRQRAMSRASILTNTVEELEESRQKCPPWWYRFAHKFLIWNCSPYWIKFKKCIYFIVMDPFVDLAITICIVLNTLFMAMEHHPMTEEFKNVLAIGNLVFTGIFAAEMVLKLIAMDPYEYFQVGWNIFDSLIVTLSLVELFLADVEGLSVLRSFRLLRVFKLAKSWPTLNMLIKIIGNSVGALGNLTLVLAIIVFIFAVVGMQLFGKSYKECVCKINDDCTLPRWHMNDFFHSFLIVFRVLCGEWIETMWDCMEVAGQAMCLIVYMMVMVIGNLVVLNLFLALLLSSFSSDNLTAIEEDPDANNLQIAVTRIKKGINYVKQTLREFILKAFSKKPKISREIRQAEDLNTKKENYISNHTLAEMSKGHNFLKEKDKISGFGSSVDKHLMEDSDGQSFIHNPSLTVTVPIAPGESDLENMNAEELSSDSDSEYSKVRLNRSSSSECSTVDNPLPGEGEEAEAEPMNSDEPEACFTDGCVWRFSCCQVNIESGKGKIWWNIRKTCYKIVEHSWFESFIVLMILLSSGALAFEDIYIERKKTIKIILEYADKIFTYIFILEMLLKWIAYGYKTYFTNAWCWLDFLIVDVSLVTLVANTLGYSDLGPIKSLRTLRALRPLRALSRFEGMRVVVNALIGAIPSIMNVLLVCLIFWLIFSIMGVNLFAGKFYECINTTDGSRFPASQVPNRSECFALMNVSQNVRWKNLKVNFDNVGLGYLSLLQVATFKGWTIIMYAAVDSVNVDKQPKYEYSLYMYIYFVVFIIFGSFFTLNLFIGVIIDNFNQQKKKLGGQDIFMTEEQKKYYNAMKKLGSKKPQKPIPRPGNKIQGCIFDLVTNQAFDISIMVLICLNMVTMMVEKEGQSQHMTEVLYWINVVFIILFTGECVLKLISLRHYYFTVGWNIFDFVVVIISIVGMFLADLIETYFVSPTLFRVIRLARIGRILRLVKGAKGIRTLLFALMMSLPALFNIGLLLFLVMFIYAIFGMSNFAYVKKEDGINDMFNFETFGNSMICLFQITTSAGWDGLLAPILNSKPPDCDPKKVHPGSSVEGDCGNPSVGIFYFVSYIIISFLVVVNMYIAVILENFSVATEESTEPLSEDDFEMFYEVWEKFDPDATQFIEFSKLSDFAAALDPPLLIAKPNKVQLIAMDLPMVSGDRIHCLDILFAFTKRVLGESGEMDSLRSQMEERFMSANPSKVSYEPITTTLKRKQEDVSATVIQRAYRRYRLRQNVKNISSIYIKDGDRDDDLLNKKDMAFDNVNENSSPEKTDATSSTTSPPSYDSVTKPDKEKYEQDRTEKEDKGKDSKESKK

| SMILES | IC50 |
| --- | --- |
| COc1cc(C(F)(F)F)ccc1-c1ncnc2cc(S(=O)(=O)Nc3ccon3)ccc12 [Example 38, N-(ISOXAZOL-3-YL)-4-(2-METHOXY-4-(TRIFLUOROMETHYL)PHENYL)QUINAZOLINE-7-SULFONAMIDE] | 2570 nM |
| O=S(=O)(Nc1ccon1)c1ccc2c(-c3ccc(-c4cccc(F)c4)cc3CO)nccc2c1 [Example 12, 1-(3′-FLUORO-3-(HYDROXYMETHYL)-[1,1′-BIPHENYL]-4-YL)-N-(ISOXAZOL-3-YL)ISOQUINOLINE-6-SULFONAMIDE 2,2,2-TRIFLUOROACETATE] | 2210 nM |

Same assay, conditions: PatchXpress (PX), in vitro

| IC50 | SMILES |
| --- | --- |
| 50.6 nM | COc1cc(-c2ccc(F)c(C)c2)c(Cl)cc1-c1nccc2cc(S(=O)(=O)Nc3ccon3)ccc12 [Example 94, 1-(2-chloro-4′-fluoro-5-methoxy-3′-methyl-4-biphenylyl)-N-3-isoxazolyl-6-isoquinolinesulfonamide] |
| 34.5 nM | COc1cc(-c2cc(F)cc(F)c2)c(F)cc1-c1nccc2cc(S(=O)(=O)Nc3ccon3)ccc12 [Example 98, N-3-isoxazolyl-1-(2,3′,5′-trifluoro-5-methoxy-4-biphenylyl)-6-isoquinolinesulfonamide] |
| 1730 nM | COc1nc(OC2CCCCC2)ccc1-c1nccc2cc(S(=O)(=O)Nc3ccncn3)ccc12 [Example 65, 1-(6-(cyclohexyloxy)-2-methoxy-3-pyridinyl)-N-4-pyrimidinyl-6-isoquinolinesulfonamide] |
| 13600 nM | COc1nc(N(CC(C)C)CC(C)C)ccc1-c1nccc2cc(S(=O)(=O)Nc3ccncn3)ccc12 [Example 46, 1-(6-(DIISOBUTYLAMINO)-2-METHOXYPYRIDIN-3-YL)-N-(PYRIMIDIN-4-YL)ISOQUINOLINE-6-SULFONAMIDE] |
| 727 nM | COc1nc(OC2CCC(F)(F)CC2)ccc1-c1nccc2cc(S(=O)(=O)Nc3ccncn3)ccc12 [Example 75, 1-(6-((4,4-difluorocyclohexyl)oxy)-2-methoxy-3-pyridinyl)-N-4-pyrimidinyl-6-isoquinolinesulfonamide] |
| 1010 nM | COc1nc(OCC(C)(C)C)ccc1-c1nccc2cc(S(=O)(=O)Nc3ccncn3)ccc12 [Example 67, 1-(6-(2,2-dimethylpropoxy)-2-methoxy-3-pyridinyl)-N-4-pyrimidinyl-6-isoquinolinesulfonamide] |
| 834 nM | COc1nc(N2CCC(F)(F)CC2)ccc1-c1nccc2cc(S(=O)(=O)Nc3ccncn3)ccc12 [Example 71, 1-(6-(4,4-difluoro-1-piperidinyl)-2-methoxy-3-pyridinyl)-N-4-pyrimidinyl-6-isoquinolinesulfonamide] |
| 811 nM | COc1nc(NC2CCC(F)(F)CC2)ccc1-c1nccc2cc(S(=O)(=O)Nc3ccncn3)ccc12 [Example 74, 1-(6-((4,4-difluorocyclohexyl)amino)-2-methoxy-3-pyridinyl)-N-4-pyrimidinyl-6-isoquinolinesulfonamide] |
| 66.3 nM | COc1cc(-c2cc(F)cnc2OC)c(F)cc1-c1nccc2cc(S(=O)(=O)Nc3ccsn3)ccc12 [Example 99, 1-(5-fluoro-4-(5-fluoro-2-methoxy-3-pyridinyl)-2-methoxyphenyl)-N-3-isothiazolyl-6-isoquinolinesulfonamide] |
| 69 nM | COc1cc(-c2ccc(Cl)c(F)c2)c(F)cc1-c1nccc2cc(S(=O)(=O)Nc3ccon3)ccc12 [Example 95, 1-(4′-chloro-2,3′-difluoro-5-methoxy-4-biphenylyl)-N-3-isoxazolyl-6-isoquinolinesulfonamide] |
| 2510 nM | COc1ccc(-c2nccc3cc(S(=O)(=O)Nc4ccncn4)ccc23)c(NCC(C)(C)C)n1 [Example 70, 1-(2-((2,2-dimethylpropyl)amino)-6-methoxy-3-pyridinyl)-N-4-pyrimidinyl-6-isoquinolinesulfonamide] |

| SMILES | IC50 |
| --- | --- |
| COc1nc(Oc2ccc(F)cc2)ccc1-c1nccc2cc(S(=O)(=O)Nc3ccncn3)ccc12 [Example 45, 1-(6-(4-FLUOROPHENOXY)-2-METHOXYPYRIDIN-3-YL)-N-(PYRIMIDIN-4-YL)ISOQUINOLINE-6-SULFONAMIDE] | 1510 nM |

Same assay, conditions: in-vitro Nav 1.7 PX data

| IC50 | SMILES |
| --- | --- |
| 2440 nM | COc1ncc(-c2ccccc2)cc1-c1nccc2cc(S(=O)(=O)Nc3ccncn3)ccc12 [Example 152, 1-(2-methoxy-5-phenyl-3-pyridinyl)-N-4-pyrimidinyl-6-isoquinolinesulfonamide] |
| 2720 nM | COc1cc(-c2nccc3cc(S(=O)(=O)Nc4ccon4)ccc23)c(C)cc1-c1cccc(F)c1 [Example 167, 1-(3′-fluoro-2-methoxy-5-methyl-4-biphenylyl)-N-3-isoxazolyl-6-isoquinolinesulfonamide] |
| 8540 nM | COc1ccc(F)cc1-c1cc(C)c(-c2ncnc3cc(S(=O)(=O)Nc4ccon4)ccc23)cc1OC [Example 168, 4-(5′-fluoro-2,2′-dimethoxy-5-methyl-4-biphenylyl)-N-3-isoxazolyl-7-quinazolinesulfonamide] |
| 15300 nM | COc1cc(C#N)c(-c2cc(F)cc(F)c2)cc1-c1nccc2cc(S(=O)(=O)Nc3ccon3)ccc12 [Example 139, 1-(6-cyano-3′,5′-difluoro-4-methoxy-3-biphenylyl)-N-3-isoxazolyl-6-isoquinolinesulfonamide] |
| 104 nM | COc1cc(C(F)F)c(Cl)cc1-c1nccc2cc(S(=O)(=O)Nc3ccon3)ccc12 [Example 169, 1-(5-chloro-4-(difluoromethyl)-2-methoxyphenyl)-N-3-isoxazolyl-6-isoquinolinesulfonamide] |
| 1010 nM | COc1cc(-c2cc(F)cc(F)c2)ccc1-c1nccc2cc(S(=O)(=O)Nc3ccccn3)ccc12 [Example 141, 1-(3′,5′-difluoro-3-methoxy-4-biphenylyl)-N-2-pyridinyl-6-isoquinolinesulfonamide] |
| 1460 nM | COc1cc(NS(=O)(=O)c2ccc3c(-c4ccc(-c5cc(F)cc(F)c5)cc4OC)nccc3c2)no1 [Example 149, 1-(3′,5′-difluoro-3-methoxy-4-biphenylyl)-N-(5-methoxy-3-isoxazolyl)-6-isoquinolinesulfonamide] |
| 1600 nM | O=S(=O)(Nc1nncs1)c1ccc2c(-c3ccc(-c4cccc(F)c4)cc3CO)nccc2c1 [Example 11, 1-(3′-FLUORO-3-(HYDROXYMETHYL)-[1,1′-BIPHENYL]-4-YL)-N-(1,3,4-THIADIAZOL-2-YL)ISOQUINOLINE-6-SULFONAMIDE] |
| 28.6 nM | COc1cc(-c2cccc(C(F)(F)F)c2)c(C#N)cc1-c1nccc2cc(S(=O)(=O)Nc3ccon3)ccc12 [Example 148, 1-(2-cyano-5-methoxy-3′-(trifluoromethyl)-4-biphenylyl)-N-3-isoxazolyl-6-isoquinolinesulfonamide] |

Same assay, conditions: in-vitro PX

| IC50 | SMILES |
| --- | --- |
| 1870 nM | COc1nc(Cl)c(Cl)cc1-c1nccc2cc(S(=O)(=O)Nc3nncs3)ccc12 [Example 240, 1-(5,6-dichloro-2-methoxy-3-pyridinyl)-N-1,3,4-thiadiazol-2-yl-6-isoquinolinesulfonamide] |
| 19.8 nM | COc1cc(-c2cc(F)cnc2OC)c(Cl)cc1-c1ncnc2cc(S(=O)(=O)Nc3ccon3)ccc12 [Example 214, 4-(5-chloro-4-(5-fluoro-2-methoxy-3-pyridinyl)-2-methoxyphenyl)-N-3-isoxazolyl-7-quinazolinesulfonamide] |

Same assay, conditions: in-vitro PX (PatchXpress) data

| IC50 | SMILES |
| --- | --- |
| 18700 nM | COc1cc(Oc2cc(F)cc(F)c2)ccc1-c1nccc2cc(S(=O)(=O)Nc3ccncn3)ccc12 [Example 178, 1-(4-(3,5-difluorophenoxy)-2-methoxyphenyl)-N-4-pyrimidinyl-6-isoquinolinesulfonamide] |
| 1610 nM | COc1cc(Oc2ccc(F)cn2)ccc1-c1nccc2cc(S(=O)(=O)Nc3ccon3)ccc12 [Example 195, 1-(4-((5-fluoro-2-pyridinyl)oxy)-2-methoxyphenyl)-N-3-isoxazolyl-6-isoquinolinesulfonamide] |
| 4940 nM | O=S(=O)(Nc1nncs1)c1ccc2c(-c3ccc(C(F)(F)F)cc3C3CC3)ncnc2c1 [Example 192, 4-(2-cyclopropyl-4-(trifluoromethyl)phenyl)-N-1,3,4-thiadiazol-2-yl-7-quinazolinesulfonamide] |
| 871 nM | COc1cc(-c2cccnc2OC(F)F)ccc1-c1nccc2cc(S(=O)(=O)Nc3nncs3)ccc12 [Example 193, 1-(4-(2-(difluoromethoxy)-3-pyridinyl)-2-methoxyphenyl)-N-1,3,4-thiadiazol-2-yl-6-isoquinolinesulfonamide] |
| 129 nM | COc1cc(Oc2cc(C)cc(F)c2)ccc1-c1nccc2cc(S(=O)(=O)Nc3nncs3)ccc12 [Example 32, 1-(4-(3-FLUORO-5-METHYLPHENOXY)-2-METHOXYPHENYL)-N-(1,3,4-THIADIAZOL-2-YL)ISOQUINOLINE-6-SULFONAMIDE] |

Same assay, conditions: in-vitro PX data

| IC50 | SMILES |
| --- | --- |
| 8.4 nM | COc1cc(-c2cccc(Cl)c2)c(F)cc1-c1ncnc2cc(S(=O)(=O)Nc3ccon3)ccc12 [Example 104, 4-(3′-chloro-2-fluoro-5-methoxy-4-biphenylyl)-N-3-isoxazolyl-7-quinazolinesulfonamide] |
| 24 nM | COc1cc(-c2ccc(Cl)c(C)c2)c(F)cc1-c1ncnc2cc(S(=O)(=O)Nc3ccon3)ccc12 [Example 103, 4-(4′-chloro-2-fluoro-5-methoxy-3′-methyl-4-biphenylyl)-N-3-isoxazolyl-7-quinazolinesulfonamide] |
| 3510 nM | COc1cc(-c2cc(F)cc(F)c2)ccc1-c1nccc2cc(S(=O)(=O)Nc3ccno3)ccc12 [Example 128, 1-(3′,5′-difluoro-3-methoxy-4-biphenylyl)-N-5-isoxazolyl-6-isoquinolinesulfonamide] |
| 695 nM | COc1cc(-c2cc(F)cc(F)c2)ccc1-c1nccc2cc(S(=O)(=O)Nc3ncc(C#N)s3)ccc12 [Example 132, N-(5-cyano-1,3-thiazol-2-yl)-1-(3′,5′-difluoro-3-methoxy-4-biphenylyl)-6-isoquinolinesulfonamide] |
| 241 nM | COc1cc(-c2cccc(F)c2)c(C#N)cc1-c1nccc2cc(S(=O)(=O)Nc3ncccn3)ccc12 [Example 109, 1-(2-cyano-3′-fluoro-5-methoxy-4-biphenylyl)-N-2-pyrimidinyl-6-isoquinolinesulfonamide] |
| 29.3 nM | COc1cc(-c2cc(F)cnc2OC)c(Cl)cc1-c1nccc2cc(S(=O)(=O)Nc3ccon3)ccc12 [Example 105, 1-(5-chloro-4-(5-fluoro-2-methoxy-3-pyridinyl)-2-methoxyphenyl)-N-3-isoxazolyl-6-isoquinolinesulfonamide] |
